{
  "source": "paper PMC8880268",
  "about": "“Magnolol and Luteolin Inhibition of α-Glucosidase Activity: Kinetics and Type of Interaction Detected by In Vitro and In Silico Studies” (Pharmaceuticals, 2022)",
  "key": {"α-glucosidase [1]": {"biological_target": "T1, α-glucosidase (Saccharomyces cerevisiae, UniProt P38158)", "T1 construct": "purchased Merck KGaA, Darmstadt, Germany", "T1 sequence (P38158 whole entry)": "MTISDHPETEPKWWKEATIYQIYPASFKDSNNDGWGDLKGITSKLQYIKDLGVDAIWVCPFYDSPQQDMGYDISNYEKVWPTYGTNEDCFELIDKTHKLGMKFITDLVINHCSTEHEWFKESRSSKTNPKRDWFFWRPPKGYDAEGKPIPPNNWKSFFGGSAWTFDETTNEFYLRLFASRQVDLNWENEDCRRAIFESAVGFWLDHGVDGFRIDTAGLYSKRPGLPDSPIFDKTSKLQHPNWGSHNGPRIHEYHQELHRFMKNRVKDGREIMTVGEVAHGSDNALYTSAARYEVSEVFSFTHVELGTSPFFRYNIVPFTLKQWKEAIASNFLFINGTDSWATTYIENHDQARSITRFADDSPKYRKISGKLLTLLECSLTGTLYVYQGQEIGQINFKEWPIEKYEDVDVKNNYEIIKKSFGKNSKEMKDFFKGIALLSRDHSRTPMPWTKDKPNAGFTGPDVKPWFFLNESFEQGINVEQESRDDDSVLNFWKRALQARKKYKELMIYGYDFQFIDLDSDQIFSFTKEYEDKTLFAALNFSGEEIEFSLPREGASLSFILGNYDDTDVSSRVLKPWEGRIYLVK", "assay": "Yeast α-glucosidase inhibitory assay (pNPG substrate, absorbance 405 nm)", "assay_type": "biochemical", "settings": "for IC50: 2 mM pNPG", "experimental": "α-Glucosidase inhibitory activity was determined according to a previous method. Briefly, 0.1 mM PBS (pH 6.8) was used to dissolve α-glucosidase and pNPG. In detail, 80 μL of PBS or 80 μL of test sample were added to 96-well plates. Successively, 20 μL of enzyme (0.025–0.125 µM) were added to each well. Magnolol (10–100 μM) and luteolin (5–50 μM) were prepared in DMSO (<1% v/v). […] Each sample was incubated with α-glucosidase for 10 min at 37 °C. The reaction started by adding 200 μL of pNPG (2 mM). The absorbance values were detected at 405 nm for 60 min, using a PerkinElmer Victor Nivo microplate spectrophotometer (Waltham, MA, USA). The α-glucosidase activity in the absence of inhibitors was defined as 100%. The half-maximal inhibitory concentration (IC50) was estimated by plot of relative enzymatic activity vs. inhibitor concentration."}, "α-glucosidase [2]": {"biological_target": "T1, α-glucosidase", "assay": "Kinetic analysis of yeast α-glucosidase inhibition (Michaelis–Menten and Lineweaver–Burk plots)", "assay_type": "biochemical", "settings": "for type of inhibition: Michaelis–Menten and Lineweaver–Burk plots; for Kcat of α-glucosidase: 0.075 µM α-glucosidase; for Vmax of α-glucosidase: converted using the Lambert–Beer relationship", "experimental": "The type of enzyme inhibition exerted by inhibitors was evaluated from kinetic studies using different substrate concentrations (0.25–2.5 mM pNPG) applying Michaelis–Menten and Lineweaver–Burk plots. Inhibition constants (Ki) were determined by plots of the Y-intercept of the Lineweaver–Burk plot vs. inhibitor concentration."}, "α-glucosidase [3]": {"biological_target": "T1, α-glucosidase", "assay": "Inactivation kinetics, time course of α-glucosidase activity", "assay_type": "biochemical", "settings": "enzyme 0.075 µM, pNPG 2 mM", "experimental": "The enzyme and substrate concentrations were 0.075 µM and 2 mM, respectively."}, "α-glucosidase [4]": {"biological_target": "T1, α-glucosidase", "assay": "Fluorescence quenching analysis and thermodynamic parameters", "assay_type": "binding", "settings": "for Ksv (Stern–Volmer quenching constant): pH 6.8, α-glucosidase 0.35 µM; for Kd: read-out: Ka (binding constant) (converted)", "experimental": "The interaction of inhibitors with α-glucosidase was studied using the fluorescence quenching method. […] Measurements were made in the emission range of 300–450 nm, with an excitation of 280 nm, after 10 min of stabilization. The fluorescent spectra of α-glucosidase (0.35 µM) and each inhibitor (0–1.0 µM) were carried out at three different temperatures (298, 304, and 310 K) and the bandwidths were set at 5 nm for both emission and excitation slits. For each sample, three fluorescence spectra were acquired, and the blank was subtracted. The compound quenching mechanism was assessed using the Stern–Volmer equation: F0 / F = 1 + Ksv[Q] = 1 + Kq^.τo[Q], where F0 and F are the fluorescence measure in absence and in presence of different concentrations of quencher, respectively; Ksv is the Stern–Volmer quenching constant; Kq is the coefficient of quencher rate coefficient; τ0 is the life time of the excited state; and [Q] is the concentration of the quencher.\nFurther elaboration of the equilibrium within the free and bound molecules can be achieved through the analysis of the fluorescence emission data utilizing the following equation: log (F0 − F) / F = log Ka + n log [Q], which obtains the binding constant (Ka) and the number of binding sites per protein (n) for the enzyme-inhibitor system.\nThermodynamic spontaneity is an important factor in the study of protein-ligand interaction. A system tends not only toward a lower energy state (enthalpy, ΔH), but also according to a state of disorder (entropy, ΔS). Thermodynamic parameters were obtained according to the Van ’t Hoff equation and the plot of “log Ka vs. 1/T”. The trade-off between enthalpy (ΔH°) and entropy (ΔS°) is used to obtain the standard free energy variation (ΔG°)."}, "α-glucosidase [5]": {"biological_target": "T1, α-glucosidase", "assay": "Non-radiation energy transfer (Förster resonance energy transfer) distance", "assay_type": "binding", "settings": "room temperature, pH 6.8, 0.35 µM", "experimental": "The distance between magnolol and α-glucosidase was calculated according to the theory of Förster resonance energy transfer. To calculate the distance (r) between the donor and the acceptor, the emission wavelength of α-glucosidase was overlapped with the absorption band of the inhibitor. The fluorescence spectrum and the UV absorption spectrum of the inhibitor were collected in the wavelength range of 300–500 nm, at room temperature, pH 6.8, and at a concentration of 0.35 µM."}, "α-glucosidase [6]": {"biological_target": "T1, α-glucosidase", "assay": "Synchronous fluorescence spectra", "settings": "pH 6.8, 298 K", "excerpt": "The application of this method allows the identification of conformational changes in proteins according to the spectroscopic behavior of the tyrosine and tryptophan residues. Synchronous fluorescence spectra were collected in the emission range of 260–320 nm. The difference between excitation and emission wavelength (Δλ) was established at 15 nm (tyrosine residues) or at 60 nm (tryptophan residues)."}, "[7]": {"settings": "298–310 K, Van ’t Hoff equation"}},
  "note": "Entries after “also recorded” stand apart in the source; their conditions may differ. Where two headings read alike, the source gives them in different places.",
  "data": [
    {"compound": "C=CCc1ccc(O)c(-c2cc(CC=C)ccc2O)c1", "note": "[Magnolol, 5,5′-diallyl-biphenyl-2,2′-diol]", "values": [
      {"measurement": "IC50", "setting": "α-glucosidase [1]; IC50, α-glucosidase 0.025 × 10^−6 M", "value": "28.3 ± 10.7", "unit": "µM"},
      {"measurement": "IC50", "setting": "α-glucosidase [1]; IC50, α-glucosidase 0.05 × 10^−6 M", "value": "28.5 ± 11", "unit": "µM"},
      {"measurement": "IC50", "setting": "α-glucosidase [1]; IC50, α-glucosidase 0.075 × 10^−6 M", "value": "32.6 ± 10.5", "unit": "µM"},
      {"measurement": "IC50", "setting": "α-glucosidase [1]; IC50, α-glucosidase 0.125 × 10^−6 M", "value": "35.5 ± 10.2", "unit": "µM"},
      {"measurement": "reversibility of inhibition", "setting": "α-glucosidase [1]; plots v vs. [α-glucosidase] at different inhibitor concentrations", "value": "reversible inhibition"},
      {"measurement": "IC50", "setting": "α-glucosidase [1]; −Log IC50, α-glucosidase 0.05 × 10^−6 M", "value": 28.2, "unit": "µM"},
      {"measurement": "type of inhibition", "setting": "α-glucosidase [2]", "value": "mixed-type antagonism"},
      {"measurement": "type of inhibition", "setting": "α-glucosidase [2]; listed as magnolol", "value": "mixed-type inhibition; also recorded: mixed-type inhibitor; also recorded: reversible mixed-type interaction"},
      {"measurement": "Kcat of α-glucosidase", "setting": "α-glucosidase [2]; inhibitor 10 µM", "value": "3.59 ± 0.17", "unit": "s⁻¹"},
      {"measurement": "Vmax of α-glucosidase", "setting": "α-glucosidase [2]; inhibitor 10 µM", "value": "16.2 ± 0.80", "unit": "µM/min"},
      {"measurement": "Kcat of α-glucosidase", "setting": "α-glucosidase [2]; inhibitor 25 µM", "value": "3.29 ± 0.15", "unit": "s⁻¹"},
      {"measurement": "Vmax of α-glucosidase", "setting": "α-glucosidase [2]; inhibitor 25 µM", "value": "14.8 ± 0.70", "unit": "µM/min"},
      {"measurement": "Kcat of α-glucosidase", "setting": "α-glucosidase [2]; inhibitor 50 µM", "value": "2.86 ± 0.13", "unit": "s⁻¹"},
      {"measurement": "Vmax of α-glucosidase", "setting": "α-glucosidase [2]; inhibitor 50 µM", "value": "12.9 ± 0.60", "unit": "µM/min"},
      {"measurement": "Kcat of α-glucosidase", "setting": "α-glucosidase [2]; inhibitor 100 µM", "value": "2.22 ± 0.29", "unit": "s⁻¹"},
      {"measurement": "Vmax of α-glucosidase", "setting": "α-glucosidase [2]; inhibitor 100 µM", "value": "10.0 ± 1.30", "unit": "µM/min"},
      {"measurement": "Inactivation rate constant K", "setting": "α-glucosidase [3]; inhibitor 10 µM", "value": "2.78 ± 0.05 10^−4 s^−1"},
      {"measurement": "Inactivation rate constant K", "setting": "α-glucosidase [3]; inhibitor 25 µM", "value": "2.81 ± 0.03 10^−4 s^−1"},
      {"measurement": "Inactivation rate constant K", "setting": "α-glucosidase [3]; inhibitor 50 µM", "value": "2.81 ± 0.01 10^−4 s^−1"},
      {"measurement": "Inactivation rate constant K", "setting": "α-glucosidase [3]; inhibitor 100 µM", "value": "2.85 ± 0.08 10^−4 s^−1"},
      {"measurement": "Kq (bimolecular quenching constant)", "setting": "α-glucosidase [4]; 298 K", "value": "3.90 ± 0.007 10^13 M^−1 s^−1"},
      {"measurement": "n (number of binding sites)", "setting": "α-glucosidase [4]; 298 K", "value": 0.39},
      {"measurement": "Ksv (Stern–Volmer quenching constant)", "setting": "α-glucosidase [4]; 298 K", "value": "3.89 ± 0.01 10^5 M^−1"},
      {"measurement": "Kd", "setting": "α-glucosidase [4]; 298 K", "value": 3.37, "unit": "µM"},
      {"measurement": "ΔH° (enthalpy change)", "setting": "α-glucosidase [4]; [7]", "value": 9.376, "unit": "kcal/mol"},
      {"measurement": "∆S° (entropy change)", "setting": "α-glucosidase [4]; [7]", "value": 121.83, "unit": "J mol^−1K^−1"},
      {"measurement": "Kq (bimolecular quenching constant)", "setting": "α-glucosidase [4]; 304 K", "value": "4.22 ± 0.011 10^13 M^−1 s^−1"},
      {"measurement": "n (number of binding sites)", "setting": "α-glucosidase [4]; 304 K", "value": 0.42},
      {"measurement": "ΔG° (free energy change)", "setting": "α-glucosidase [4]; 304 K, Van ’t Hoff equation", "value": -0.523, "unit": "kcal/mol"},
      {"measurement": "Ksv (Stern–Volmer quenching constant)", "setting": "α-glucosidase [4]; 304 K", "value": "4.22 ± 0.01 10^5 M^−1"},
      {"measurement": "Kd", "setting": "α-glucosidase [4]; 304 K", "value": 2.2, "unit": "µM"},
      {"measurement": "Kq (bimolecular quenching constant)", "setting": "α-glucosidase [4]; 310 K", "value": "5.30 ± 0.022 10^13 M^−1 s^−1"},
      {"measurement": "n (number of binding sites)", "setting": "α-glucosidase [4]; 310 K", "value": 0.65},
      {"measurement": "ΔG° (free energy change)", "setting": "α-glucosidase [4]; 310 K, Van ’t Hoff equation", "value": -0.349, "unit": "kcal/mol"},
      {"measurement": "Ksv (Stern–Volmer quenching constant)", "setting": "α-glucosidase [4]; 310 K", "value": "5.30 ± 0.02 10^5 M^−1"},
      {"measurement": "Kd", "setting": "α-glucosidase [4]; 310 K", "value": 1.82, "unit": "µM"},
      {"measurement": "fluorescence quenching mechanism", "setting": "α-glucosidase [4]; based on Ksv and Kq values", "value": "static-dynamic quenching process"},
      {"measurement": "number of binding sites", "setting": "α-glucosidase [4]; no temperature stated", "value": "~0.6"},
      {"measurement": "calculated distance between inhibitor and α-glucosidase", "setting": "α-glucosidase [5]", "value": 2.06, "unit": "nm"},
      {"measurement": "shift of synchronous fluorescence maximum", "setting": "α-glucosidase [6]; ∆λ = 15 nm (tyrosine residues)", "value": "red shift from 286 to 290"},
      {"measurement": "shift of synchronous fluorescence maximum", "setting": "α-glucosidase [6]; ∆λ = 60 nm (tryptophan residues)", "value": "no modification"}
    ]}
  ]
}
